pEC50: −log10 of the molar value. The source made the active and inactive calls. No cut-off for these calls is given here.
What was measured:
[1] = system: 3T3-L1; assay: Anti-adipogenic activity against mouse 3T3-L1 cells assessed as downregulation of C/EBPdelta protein expression level at 0.1 to 1 uM incubated for 24 hrs by Western blot analysis; format: functional, cell-based; conditions: dose 0.1-1 µM
[2] = system: Mus musculus; assay: Anti-obesity activity in high fat diet-induced obese C57BL/6J mouse model assessed as reduction in hepatic steatosis by measuring lipid deposition at 40 mg/kg, ip administered every two days for 46 days; format: functional, organism-based; conditions: time 46.0 day
[3] = system: 3T3-L1; assay: Anti-adipogenic activity in SiRNA mediated Raptor knockdown mouse 3T3-L1 cells assessed as ACC expression level at 10 uM by Western blot analysis; format: functional, cell-based
[4] = biological target: mTORC1 (Mus musculus) (UniProt Q9JLN9); assay: Inhibition of mTORC1 formation in mouse 3T3-L1 cells assessed as decrease in Raptor/mTOR interaction at 10 uM incubated for 24 hrs by reciprocal co-immunoprecipitation assay; format: cell-based
[5] = system: Mus musculus; assay: Anti-obesity activity in high fat diet-induced obese C57BL/6J mouse model assessed as reduction in free fatty acid level at 40 mg/kg, ip administered every two days for 46 days; format: functional, organism-based; conditions: time 46.0 day
[6] = system: Mus musculus; assay: Anti-obesity activity in high fat diet-induced obese C57BL/6J mouse model assessed as increase in PGC-1alpha expression level in liver at 40 mg/kg, ip administered every two days for 46 days by immunohistochemical analysis; format: functional, organism-based; conditions: time 46.0 day
[7] = system: Mus musculus; assay: Anti-obesity activity in high fat diet-induced obese C57BL/6J mouse model assessed as increase in COX4 expression level in liver at 40 mg/kg, ip administered every two days for 46 days by immunohistochemical analysis; format: functional, organism-based; conditions: time 46.0 day
[8] = system: Mus musculus; assay: Anti-obesity activity in high fat diet-induced obese C57BL/6J mouse assessed as reduction in visceral fat content by measuring perirenal white adipose tissue weight at 40 mg/kg, ip administered every two days for 46 days; format: functional, organism-based; conditions: time 46.0 day
[9] = system: 3T3-L1; assay: Anti-adipogenic activity in SiRNA mediated Raptor knockdown mouse 3T3-L1 cells assessed as C/EBPalpha expression level at 10 uM by Western blot analysis; format: functional, cell-based
[10] = biological target: Serine/threonine-protein kinase mTOR (Mus musculus) (UniProt Q9JLN9); assay: Inhibition of mTOR signalling in mouse 3T3-L1 cells assessed as mTOR phosphorylation at S2481 residue at 0.1 to 10 uM incubated for 24 hrs by Western blot analysis; format: cell-based; conditions: dose 0.1-10 µM
[11] = system: 3T3-L1; assay: Anti-adipogenic activity against mouse 3T3-L1 cells assessed as downregulation of DGAT2 protein expression level at 0.1 to 1 uM incubated for 6 days by Western blot analysis; format: functional, cell-based; conditions: dose 0.1-1 µM, time 6.0 day
[12] = system: Mus musculus; assay: Anti-obesity activity in high fat diet-induced obese C57BL/6J mouse model assessed as increase in glucose clearance at 40 mg/kg, ip administered every two days for 3 weeks pretreated with compound and followed by glucose challenge and measured upto 120 mins by IPGTT assay; format: functional, organism-based
[13] = system: 3T3-L1; assay: Anti-adipogenic activity against mouse 3T3-L1 cells assessed as downregulation of C/EBPbeta protein expression level at 0.1 to 1 uM incubated for 24 hrs by Western blot analysis; format: functional, cell-based; conditions: dose 0.1-1 µM
[14] = biological target: Serine/threonine-protein kinase mTOR (Mus musculus) (UniProt Q9JLN9); assay: Inhibition of mTOR signalling in mouse 3T3-L1 cells assessed as […] of 4E-BP1 phosphorylation at 0.1 to 10 uM incubated for 24 hrs by Western blot analysis; format: cell-based; conditions: dose 0.1-10 µM
[15] = system: Mus musculus; assay: Anti-obesity activity in high fat diet-induced obese C57BL/6J mouse assessed as reduction in visceral fat content by measuring inguen white adipose tissue weight at 40 mg/kg, ip administered every two days for 46 days; format: functional, organism-based; conditions: time 46.0 day
[16] = system: 3T3-L1; assay: Anti-adipogenic activity against mouse 3T3-L1 cells assessed as downregulation of C/EBPdelta mRNA expression level at 0.1 to 1 uM incubated for 24 hrs by RT-qPCR analysis; format: functional, cell-based; conditions: dose 0.1-1 µM
[17] = system: Mus musculus; assay: Anti-obesity activity in high fat diet-induced obese C57BL/6J mouse model assessed as increase in […] expression level in inguen white adipose tissue at 40 mg/kg, ip administered every two days for 46 days by immunohistochemical analysis; format: functional, organism-based; conditions: time 46.0 day
[18] = system: Mus musculus; assay: Anti-obesity activity in high fat diet-induced obese C57BL/6J mouse assessed as decrease in size of adipocytes in epididymis white adipose tissue at 40 mg/kg, ip administered every two days for 46 days by H and E staining based microscopy; format: functional, organism-based; conditions: time 46.0 day
[19] = biological target: Serine/threonine-protein kinase mTOR (Mus musculus) (UniProt Q9JLN9); assay: Inhibition of mTOR signalling in mouse 3T3-L1 cells assessed as downregulation of S6K1 phosphorylation at 0.1 to 10 uM incubated for 24 hrs by Western blot analysis; format: cell-based; conditions: dose 0.1-10 µM
[20] = system: 3T3-L1; assay: Anti-adipogenic activity against mouse 3T3-L1 cells assessed as downregulation of C/EBPbeta mRNA expression level at 0.1 to 1 uM incubated for 24 hrs by RT-qPCR analysis; format: functional, cell-based; conditions: dose 0.1-1 µM
[21] = system: 3T3-L1; assay: Anti-adipogenic activity in mouse 3T3-L1 cells assessed as increase in co-localization of lipid droplets and autophagolysosomes at 10 uM by Bodipy and LysoTracker staining based immunofluorescence analysis; format: functional, cell-based
[22] = system: Mus musculus; assay: Anti-obesity activity in high fat diet-induced obese C57BL/6J mouse model assessed as increase in PGC-1alpha expression level in brown adipocyte at 40 mg/kg, ip administered every two days for 46 days by immunohistochemical analysis; format: functional, organism-based; conditions: time 46.0 day
[23] = system: Mus musculus; assay: Anti-obesity activity in high fat diet-induced obese C57BL/6J mouse assessed as decrease in body weight at 40 mg/kg, ip administered every two days for 46 days (Rvb=52.5%); format: functional; set-up: scale not given: the % may be the effect or the level left; conditions: time 46 day
[24] = system: 3T3-L1; assay: Anti-adipogenic activity against mouse 3T3-L1 cells assessed as decrease in triglyceride level by Oil Red O staining based spectroscopic analysis; format: functional, cell-based
[25] = system: Mus musculus; assay: Anti-obesity activity in high fat diet-induced obese C57BL/6J mouse model assessed as reduction in triglyceride level at 40 mg/kg, ip administered every two days for 46 days; format: functional, organism-based; conditions: time 46.0 day
[26] = system: 3T3-L1; assay: Anti-adipogenic activity in siRNA-mediated LC3B knockdown mouse 3T3-L1 cells assessed as decrease in triglyceride level at 10 uM by Oil Red O staining based spectroscopic analysis; format: functional, cell-based
[27] = system: Mus musculus; assay: Anti-obesity activity in high fat diet-induced obese C57BL/6J mouse model assessed as reduction in plasma ALT level at 40 mg/kg, ip administered every two days for 46 days; format: functional, organism-based; conditions: time 46.0 day
[28] = system: Mus musculus; assay: Anti-obesity activity in high fat diet-induced obese C57BL/6J mouse model assessed as reduction in plasma insulin level at 40 mg/kg, ip administered every two days for 46 days; format: functional, organism-based; conditions: time 46.0 day
[29] = system: Mus musculus; assay: Anti-obesity activity in high fat diet-induced obese C57BL/6J mouse model assessed as reduction in plasma glucose level at 40 mg/kg, ip administered every two days for 14 days; format: functional, organism-based; conditions: time 14.0 day
[30] = system: 3T3-L1; assay: Anti-adipogenic activity against mouse 3T3-L1 cells assessed as downregulation of FAS mRNA expression level at 0.1 to 1 uM incubated for 6 days by RT-qPCR analysis; format: functional, cell-based; conditions: dose 0.1-1 µM, time 6.0 day
[31] = biological target: mTORC1 (Mus musculus) (UniProt Q9JLN9); assay: Inhibition of mTORC1 formation in siRNA mediated Raptor knockdown mouse 3T3-L1 cells assessed as decrease in phosphorylated 4E-BP1 expression level at 10 uM incubated for 24 hrs by Western blot analysis; format: cell-based
[32] = system: Mus musculus; assay: In vivo inhibition of mTOR signalling in high fat diet-induced obese C57BL/6J mouse model assessed as decrease in mTOR phosphorylation at S2481 in liver at 40 mg/kg, ip administered every two days for 46 days by Western blot analysis; format: functional, organism-based; conditions: time 46.0 day

C=C(C)[C@@]12OC3(c4ccccc4)O[C@@H]1[C@@H]1[C@H](O)[C@](Cl)(COC(=O)c4ccccc4)[C@@H](O)[C@]4(O)C(=O)C(C)=C[C@H]4[C@@]1(O3)[C@H](C)[C@H]2OC(C)=O
Activity [1]: Active | Activity [2]: Active | Activity [3]: Active | inhibition [4]: inactive | Activity [5]: Active | Activity [6]: Active | Activity [7]: Active | Activity [8]: Active | Activity [9]: Active | inhibition [10]: Active | Activity [11]: Active | Activity [12]: Active | Activity [13]: Active | inhibition [14]: Active | Activity [15]: Active | Activity [16]: Active | Activity [17]: Active | Activity [18]: Active | inhibition [19]: Active | Activity [20]: Active | Activity [21]: inactive | Activity [22]: Active | Activity [23]: 26.8% | pEC50 [24]: 7.01 | Activity [25]: Active | Activity [26]: Active | Activity [27]: Active | Activity [28]: Active | Activity [29]: Active | Activity [30]: Active | inhibition [31]: Active | inhibition [32]: Active

— ChEMBL document CHEMBL5380850, “Discovery of the First Raptor (Regulatory-Associated Protein of mTOR) Inhibitor as a New Type of Antiadipogenic Agent” (J Med Chem, 2023)
